Target: cAMP and cAMP-inhibited cGMP 3',5'-cyclic phosphodiesterase 10A (Homo sapiens, UniProt Q9Y233)
Assay: PDE10A assay
Procedure, shortened: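 Scintillation proximity readout of [3H]cGMP hydrolysis (50 nM final substrate, 15 min) by 2 ng/well human PDE10A after 15 min compound preincubation at RT, pH 7.5 with MgCl2. Four-parameter logistic fit gave IC50, reported as pIC50.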

IC50	SMILES
0.36 µM	Cc1c(Cl)cc(Cl)c2nc(CCc3cn4cccnc4n3)nn12 [Roche-Dataset for PDE10A, Compound 785]
0.916 µM	Cc1c(Cl)cc(Cl)c2nc(CCc3nc4ncccn4n3)nn12 [Roche-Dataset for PDE10A, Compound 791]
3.19 µM	Cn1ncc(C(=O)N2CCC2)c1C(=O)Nc1cn(-c2cccc(C(F)(F)F)n2)cn1 [Roche-Dataset for PDE10A, Compound 802]
0.062 µM	C/C(=C\c1nc2c(C)ncc(C)n2n1)c1nc(N2CCCC2)nn1C [Roche-Dataset for PDE10A, Compound 805]
0.179 µM	Cc1nc2ccccc2nc1OCc1nc(-c2ccc(Cl)cc2)cn1C [Roche-Dataset for PDE10A, Compound 810]
10 µM	Cc1ncc(C(=O)Nc2ccn3nc(-c4ccccc4)nc3c2)cn1 [Roche-Dataset for PDE10A, Compound 813]
0.072 µM	CCn1ccc(NC(=O)c2nc(C3CC3)ccc2Nc2cncnc2)n1 [Roche-Dataset for PDE10A, Compound 819]
0.0079 µM	COc1ccc(-c2nc3cc(NC(=O)c4c(C(=O)N5CCC5)cnn4C)ccn3n2)cc1 [Roche-Dataset for PDE10A, Compound 820]
10 µM	CCOC(=O)c1cnn(C)c1C(=O)N(C)c1ccn2nc(-c3ccccc3)nc2c1 [Roche-Dataset for PDE10A, Compound 825]
0.029 µM	CN(C)CCn1ccc(NC(=O)c2nc(C3CC3)cnc2Nc2cncnc2)n1 [Roche-Dataset for PDE10A, Compound 828]
0.046 µM	Cn1ncc(C(=O)N2CCC2)c1C(=O)Nc1cn(-c2ccccn2)cn1 [Roche-Dataset for PDE10A, Compound 833]
0.169 µM	Cc1ncc(C)n2nc(CCc3nc(-n4cccn4)nn3C)nc12 [Roche-Dataset for PDE10A, Compound 836]
0.117 µM	Cc1ncc(C)n2nc(CCc3nc(N(C)CC4CC4)nn3C)nc12 [Roche-Dataset for PDE10A, Compound 841]
1.78 µM	COCCN(C)c1nc(CCc2nc3c(C)ncc(C)n3n2)nn1C [Roche-Dataset for PDE10A, Compound 847]
1.23 µM	CC(C)c1nc2cc(NC(=O)c3c(C(=O)O)cnn3C)ccn2n1 [Roche-Dataset for PDE10A, Compound 848]
0.05 µM	Cn1cc(-c2ccccc2)nc1CCc1nc2c(cnn2C)c(=O)[nH]1 [Roche-Dataset for PDE10A, Compound 854]
0.314 µM	CN(C)CCn1nccc1NC(=O)c1nc(C2CC2)cnc1Nc1cncnc1 [Roche-Dataset for PDE10A, Compound 857]

The next lines start with the compound.

SMILES	IC50
O=C(NCc1cc(F)cc(F)c1)c1nc(C2CC2)cnc1Nc1cncnc1 [Roche-Dataset for PDE10A, Compound 783]	1.06 µM
CN(C)C(=O)Cn1cc(NC(=O)c2nc(C3CC3)cnc2Nc2cncnc2)cn1 [Roche-Dataset for PDE10A, Compound 787]	0.671 µM
O=C1NCc2ccc(NC(=O)c3nc(C4CC4)ccc3Nc3cncnc3)cc21 [Roche-Dataset for PDE10A, Compound 788]	0.02 µM
COCc1ccc(Nc2cncnc2)c(C(=O)Nc2cccc(-c3ccn(C)n3)c2)n1 [Roche-Dataset for PDE10A, Compound 790]	0.00532 µM
O=C(Nc1cccc(N2CCCC2)c1)c1nc(C2CC2)cnc1Nc1cncnc1 [Roche-Dataset for PDE10A, Compound 793]	0.132 µM
O=C(NCCCN1CCCC1=O)c1nc(C2CC2)cnc1Nc1cncnc1 [Roche-Dataset for PDE10A, Compound 795]	1.11 µM
O=C(NCc1ccc(F)c(F)c1)c1nc(C2CC2)cnc1Nc1cncnc1 [Roche-Dataset for PDE10A, Compound 799]	0.376 µM
CS(=O)(=O)c1ccc(CNC(=O)c2nc(C3CC3)cnc2Nc2cncnc2)cc1 [Roche-Dataset for PDE10A, Compound 800]	0.554 µM
O=C(NCC1(c2ccccc2)CCCCC1)c1nc(C2CC2)cnc1Nc1cncnc1 [Roche-Dataset for PDE10A, Compound 804]	0.728 µM
CNC(=O)Cc1ccccc1NC(=O)c1nc(C2CC2)ccc1Nc1cncnc1 [Roche-Dataset for PDE10A, Compound 809]	0.053 µM
O=C(Nc1nc2cccnc2s1)c1nc(C2CC2)ccc1Nc1cncnc1 [Roche-Dataset for PDE10A, Compound 811]	0.02 µM
O=C(Nc1cccc(N2CCOCC2)c1)c1nc(C2CC2)cnc1Nc1cncnc1 [Roche-Dataset for PDE10A, Compound 812]	0.013 µM
CCCCc1cc(NC(=O)c2c(C(=O)N3CCC3)cnn2C)n(C2CCCC2)n1 [Roche-Dataset for PDE10A, Compound 814]	0.619 µM
O=C(Nc1ccnc(N2CCOCC2)c1)c1nc(C2CC2)cnc1Nc1cncnc1 [Roche-Dataset for PDE10A, Compound 815]	0.00856 µM
CC(C)Oc1cncc(NC(=O)c2nc(C3CC3)cnc2Nc2cncnc2)c1 [Roche-Dataset for PDE10A, Compound 816]	0.063 µM
NS(=O)(=O)c1ccc(CNC(=O)c2nc(C3CC3)cnc2Nc2cncnc2)cc1 [Roche-Dataset for PDE10A, Compound 817]	0.389 µM
O=C(Nc1snnc1-c1ccccc1)c1nc(C2CC2)ccc1Nc1cncnc1 [Roche-Dataset for PDE10A, Compound 818]	0.00758 µM
CC(=O)N(C)c1cccc(NC(=O)c2nc(C3CC3)cnc2Nc2cncnc2)c1 [Roche-Dataset for PDE10A, Compound 821]	0.135 µM
O=C(NC1CCN(Cc2ccccc2)CC1)c1nc(C2CC2)cnc1Nc1cncnc1 [Roche-Dataset for PDE10A, Compound 823]	5.05 µM
CC(=O)N1CCc2ccc(NC(=O)c3nc(C4CC4)cnc3Nc3cncnc3)cc21 [Roche-Dataset for PDE10A, Compound 827]	0.00585 µM
O=C(Nc1cccc(C(=O)N2CCCC2)n1)c1nc(C2CC2)cnc1Nc1cncnc1 [Roche-Dataset for PDE10A, Compound 830]	0.01 µM
O=C(Nc1cccc(N2CCCC2=O)c1)c1nc(C2CC2)ccc1Nc1cncnc1 [Roche-Dataset for PDE10A, Compound 831]	0.024 µM
O=C(Nc1nc(CN2CCCCC2)cs1)c1nc(C2CC2)cnc1Nc1cncnc1 [Roche-Dataset for PDE10A, Compound 832]	0.032 µM
O=C(NCc1cccc(F)c1)c1nc(C2CC2)cnc1Nc1cncnc1 [Roche-Dataset for PDE10A, Compound 837]	0.499 µM
O=C(NCc1cn2ccsc2n1)c1nc(C2CC2)cnc1Nc1cncnc1 [Roche-Dataset for PDE10A, Compound 838]	0.038 µM
O=C(NCCNS(=O)(=O)c1ccccc1)c1nc(C2CC2)cnc1Nc1cncnc1 [Roche-Dataset for PDE10A, Compound 839]	0.403 µM
CSc1nc2cc(NC(=O)c3c(C(=O)N4CCC4)cnn3C)ccc2s1 [Roche-Dataset for PDE10A, Compound 840]	0.331 µM
CN1C(=O)c2ccc(NC(=O)c3nc(C4CC4)ccc3Nc3cncnc3)cc2C1=O [Roche-Dataset for PDE10A, Compound 849]	0.048 µM
O=C(Nc1cncc(OC(F)F)c1)c1nc(C2CC2)cnc1Nc1cncnc1 [Roche-Dataset for PDE10A, Compound 855]	0.134 µM
O=C(Nc1ccn(CC(F)(F)F)n1)c1nc(Cl)ccc1Nc1cncnc1 [Roche-Dataset for PDE10A, Compound 859]	0.156 µM

— BindingDB's records for doi:10.1007/s10822-022-00478-x (Roche Innovation Center Basel, F. Hoffmann-La Roche Ltd., 2022)
